The values that follow come from ChEMBL document CHEMBL1641370, “Novel 6,7,8,9-tetrahydro-5H-1,4,7,10a-tetraaza-cyclohepta[f]indene analogues as potent and selective 5-HT(2C) agonists for the treatment of metabolic disorders” (Bioorg Med Chem Lett, 2011).

pEC50: −log10 of the molar value.

For data set [1], the target named is T1, 5-hydroxytryptamine receptor 2C (Homo sapiens) (UniProt P28335).
T1 sequence (whole entry): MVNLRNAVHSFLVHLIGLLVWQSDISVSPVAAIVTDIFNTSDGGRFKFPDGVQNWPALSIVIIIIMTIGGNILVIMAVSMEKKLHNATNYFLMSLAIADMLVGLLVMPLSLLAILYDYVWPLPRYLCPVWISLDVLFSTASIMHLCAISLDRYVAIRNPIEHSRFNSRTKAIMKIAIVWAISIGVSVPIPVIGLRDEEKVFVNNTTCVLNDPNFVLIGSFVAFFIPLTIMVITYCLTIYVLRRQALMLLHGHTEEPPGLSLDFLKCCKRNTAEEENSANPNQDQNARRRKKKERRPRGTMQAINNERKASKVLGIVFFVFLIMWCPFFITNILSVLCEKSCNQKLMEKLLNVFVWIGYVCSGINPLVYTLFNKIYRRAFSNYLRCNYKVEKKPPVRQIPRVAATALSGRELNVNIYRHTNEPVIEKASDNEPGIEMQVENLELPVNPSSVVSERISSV
Kind of data set: Agonist activity at human recombinant 5HT2C receptor expressed in CHOK1 cells assessed as induction of intracellular calcium release by FLIPR assay relative to 5-HT. Type of data set: functional, cell-based. As to conditions: CHO-K1. On the technique in general: Calcium flux is commonly read through the fluorescence of an indicator in the cells.

Data set [2] has as its target T2, 5-hydroxytryptamine receptor 2B (Homo sapiens, UniProt P41595). Briefly: Agonist activity at human recombinant 5HT2B receptor expressed in CHOK1 cells assessed as induction of intracellular calcium release by FLIPR assay relative to 5-HT. As to conditions: CHO-K1. Type of data set: functional, cell-based.
The target in data set [3] is T3, 5-hydroxytryptamine receptor 2A (Homo sapiens, UniProt P28223). Kind of data set: Agonist activity at human recombinant 5HT2A receptor expressed in CHOK1 cells assessed as induction of intracellular calcium release by FLIPR assay. Type of data set: functional, cell-based, CHO-K1.
For data set [4], the target named is T2, 5-hydroxytryptamine receptor 2B. Kind of data set: Agonist activity at human recombinant 5HT2B receptor expressed in CHOK1 cells assessed as induction of intracellular calcium release by FLIPR assay. It is filed as functional, cell-based, CHO-K1.
Data set [5] has as its target T4, 5-hydroxytryptamine receptor 2C (Homo sapiens, UniProt P28335).
T4 sequence (P28335 whole entry): T1 sequence (whole entry)
Kind of data set: Agonist activity at human recombinant 5HT2C receptor expressed in CHOK1 cells assessed as induction of intracellular calcium release by FLIPR assay. Type of data set: functional, cell-based, CHO-K1.

Another data set addresses hERG (KCNH2) (Homo sapiens, UniProt Q12809). Briefly: Inhibition of human ERG expressed in CHO cells at 10 uM by whole cell patch-clamp technique. Type of data set: cell-based. As to conditions: CHO cells expressing human ERG. On the technique in general: Patch clamp records ionic current or voltage across a cell membrane.
For data set [6], the target named is T3, 5-hydroxytryptamine receptor 2A. Kind of data set: Agonist activity at human recombinant 5HT2A receptor expressed in CHOK1 cells assessed as induction of intracellular calcium release by FLIPR assay relative to 5-HT. It is filed as functional, cell-based. The conditions noted are these: CHO-K1.
The subject of the next data set is Caco-2. Kind of data set: Efflux ratio of permeability from […] of human Caco2 cells. Type of data set: ADME, cell-based. For orientation: Passage across Caco-2 layers is used to estimate intestinal permeability.
A short description of data set [7]: Volume of distribution at steady state in Wistar rat at 10 mg/kg, iv and 30 mg/kg, po. It is filed as ADME, organism-based. The conditions noted are these: in vivo, read-out: Vdss.
Data set [8] is described as follows: Clearance in Wistar rat at 10 mg/kg, iv and 30 mg/kg, po. It is filed as ADME, organism-based. As to conditions: in vivo.
Data set [9] can be described thus: Ratio of drug level in CSF to fraction unbound in plasma of Wistar rat at 30 mg/kg, po at 2 hrs. It is filed as ADME, organism-based. More on the design: dose 30 mg/kg, route oral. The conditions noted are these: in vivo.
The test system of data set [10] is Rattus norvegicus. Kind of data set: Dose normalized AUC in Wistar rat at 30 mg/kg, po. Type of data set: ADME, organism-based. As to conditions: in vivo. More on the design: dose 30 mg/kg, route oral.
Data set [11] concerns Rattus norvegicus. Kind of data set: Antiobesity activity in Wistar rat cafteria diet model assessed as weight loss at 30 mg/kg, po after 3 day relative to control. Type of data set: functional.
The test system of data set [12] is Rattus norvegicus. Briefly: Antiobesity activity in Wistar rat cafteria diet model assessed as weight loss at 100 mg/kg, po after 3 day relative to control. It is filed as functional.
Data set [13] in a line: Mean residence time in Wistar rat at 10 mg/kg, iv. Type of data set: ADME, organism-based. More on the design: dose 10 mg/kg, route intravenous. The conditions noted are these: in vivo.
Data set [14] in a line: Permeability from apical to basolateral side of human Caco2 cells. It is filed as ADME, cell-based. The conditions noted are these: caco-2, read-out: permeability.
Data set [15] in a line: Mean residence time in Wistar rat at 30 mg/kg, po. Type of data set: ADME, organism-based. More on the design: dose 30 mg/kg, route oral. The conditions noted are these: in vivo.
The target of data set [16] is Serotonin 2 receptors; 5-HT2a & 5-HT2c (Homo sapiens) (UniProt P28223+P28335). Kind of data set: Selectivity ratio of EC50 for human recombinant 5HT2A receptor to EC50 for human recombinant 5HT2C receptor.
For a further data set, the species on record is Homo sapiens. Briefly: Selectivity ratio of EC50 for human recombinant 5HT2B receptor to EC50 for human recombinant 5HT2C receptor.

Chain of hERG (KCNH2) (Q12809 whole entry): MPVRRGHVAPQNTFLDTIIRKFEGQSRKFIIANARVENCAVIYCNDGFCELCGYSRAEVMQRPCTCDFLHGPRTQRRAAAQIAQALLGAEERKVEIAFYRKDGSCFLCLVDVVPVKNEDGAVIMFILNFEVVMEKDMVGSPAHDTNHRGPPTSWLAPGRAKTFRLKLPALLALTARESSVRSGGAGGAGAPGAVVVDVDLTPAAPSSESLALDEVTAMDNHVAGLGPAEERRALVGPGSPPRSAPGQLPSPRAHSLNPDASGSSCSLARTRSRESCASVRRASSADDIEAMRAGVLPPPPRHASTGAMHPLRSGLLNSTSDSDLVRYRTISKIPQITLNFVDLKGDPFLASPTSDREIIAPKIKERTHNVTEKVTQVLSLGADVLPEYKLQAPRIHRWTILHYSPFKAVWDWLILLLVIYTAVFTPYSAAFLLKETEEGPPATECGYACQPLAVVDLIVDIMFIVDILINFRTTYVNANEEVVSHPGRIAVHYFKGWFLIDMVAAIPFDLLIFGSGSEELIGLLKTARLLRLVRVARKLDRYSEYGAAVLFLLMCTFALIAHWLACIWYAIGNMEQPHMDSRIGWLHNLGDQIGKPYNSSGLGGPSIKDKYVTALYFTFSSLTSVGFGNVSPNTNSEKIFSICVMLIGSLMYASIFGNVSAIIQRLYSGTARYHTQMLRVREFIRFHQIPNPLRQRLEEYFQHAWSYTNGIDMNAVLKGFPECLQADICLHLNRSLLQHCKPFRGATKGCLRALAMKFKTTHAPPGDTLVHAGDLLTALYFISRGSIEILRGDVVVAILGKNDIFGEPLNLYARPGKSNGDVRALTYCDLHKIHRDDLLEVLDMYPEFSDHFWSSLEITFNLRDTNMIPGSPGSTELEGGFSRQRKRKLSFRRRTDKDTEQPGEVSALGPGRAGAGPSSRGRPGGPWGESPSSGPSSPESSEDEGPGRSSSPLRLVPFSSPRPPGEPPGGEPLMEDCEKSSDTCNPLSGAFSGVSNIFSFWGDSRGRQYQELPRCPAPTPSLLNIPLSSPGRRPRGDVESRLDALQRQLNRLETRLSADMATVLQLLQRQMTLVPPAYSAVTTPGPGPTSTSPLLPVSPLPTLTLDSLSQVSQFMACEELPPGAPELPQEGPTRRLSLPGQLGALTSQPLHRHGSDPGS
T2 sequence (P41595 whole entry): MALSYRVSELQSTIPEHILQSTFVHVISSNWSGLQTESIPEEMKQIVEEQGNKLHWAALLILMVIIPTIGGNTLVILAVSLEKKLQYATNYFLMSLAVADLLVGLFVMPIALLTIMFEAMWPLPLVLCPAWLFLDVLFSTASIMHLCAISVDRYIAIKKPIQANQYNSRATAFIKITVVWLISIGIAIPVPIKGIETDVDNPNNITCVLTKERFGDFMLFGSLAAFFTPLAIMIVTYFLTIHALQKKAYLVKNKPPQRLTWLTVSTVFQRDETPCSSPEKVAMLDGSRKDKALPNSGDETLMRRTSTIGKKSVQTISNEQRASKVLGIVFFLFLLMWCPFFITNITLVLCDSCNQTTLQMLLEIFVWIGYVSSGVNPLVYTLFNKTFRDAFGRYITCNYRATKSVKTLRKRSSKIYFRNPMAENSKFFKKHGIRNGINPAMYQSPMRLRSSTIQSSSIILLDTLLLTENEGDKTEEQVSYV
T3 sequence (P28223 whole entry): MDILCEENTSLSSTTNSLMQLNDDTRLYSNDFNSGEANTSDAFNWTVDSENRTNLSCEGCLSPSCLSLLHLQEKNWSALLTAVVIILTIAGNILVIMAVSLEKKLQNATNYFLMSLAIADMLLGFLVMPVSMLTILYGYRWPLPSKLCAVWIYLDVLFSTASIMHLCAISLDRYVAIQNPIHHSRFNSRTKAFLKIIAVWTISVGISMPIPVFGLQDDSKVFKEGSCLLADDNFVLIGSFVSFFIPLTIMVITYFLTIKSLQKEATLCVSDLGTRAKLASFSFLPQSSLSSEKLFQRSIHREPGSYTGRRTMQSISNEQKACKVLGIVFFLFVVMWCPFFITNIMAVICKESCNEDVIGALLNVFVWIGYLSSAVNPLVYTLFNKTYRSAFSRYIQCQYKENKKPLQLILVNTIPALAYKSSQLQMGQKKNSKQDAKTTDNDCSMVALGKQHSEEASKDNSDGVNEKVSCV
Chain of Serotonin 2 receptors; 5-HT2a & 5-HT2c (Homo sapiens) (P28223 whole entry, looked up, one chain of several): as the sequence (P28223 whole entry) above

For orientation: Emax means the size of the effect at its maximum, as opposed to the concentration needed. By pEC50 is commonly meant the EC50 on a negative log10 scale, so that one unit is a factor of ten. By inhibition is commonly meant the change of the read-out against control, counted positive when it falls. Read a high inhibition as a response far below the control. For the molecule `Fc1ccc(OC2CN(c3c4c(nc5ccnn35)CCNCC4)C2)cc1`, the Emax in [1] came out at 95%; in data set [2] it was 43%; in [6] it was 8%. The negative logarithm of the EC50 (pEC50) was 8.52 in data set [3], 6.79 in data set [4] and 7.64 in data set [5]. Further, at 10 µM the inhibition against hERG (KCNH2) was 95%.

For `CCNc1c2c(nc3ccnn13)CCNCC2`, the Emax came to 104% in [1], 97% in data set [2] and 62% in [6]. For the same molecule, the pEC50 in [3] is 6.86; in data set [4], 6.22; in data set [5], 7.20.

Broadly, the AUC is the area under the concentration-time curve, a measure of exposure. In general, MRT refers to the average time that molecules of a dose stay in the body. Take `COc1ccc(OC2CN(c3c4c(nc5ccnn35)CCNCC4)C2)cc1`: the Ratio is listed as 1.3 in the data set with Caco-2 and 0.15 in data set [9]. The Vd in data set [7] turned out to be 11 L/kg. Further, the clearance in [8] was found to be 14 mL/min/kg. Moreover, the Emax in data set [1] is 76%; in data set [2], 31%; in data set [6], 21%. Also, in the data set with Rattus norvegicus [10], the AUC turned out to be 0.72 µM·h. Moreover, the Activity is 3.2% in the data set with Rattus norvegicus [11] and 3.3% in the data set on Rattus norvegicus [12]. Also, the mean residence time (MRT) in data set [13] was 13 h; in data set [15], > 24 h. The pEC50 was 5.58 in data set [3], 6.30 in data set [4] and 7.02 in data set [5]. For the same molecule, the Papp A→B in data set [14] was determined as 10.4 ×10⁻⁶ cm/s. The same molecule displayed an inhibition at 10 µM against hERG (KCNH2) of 93%.

Consider `COc1cccc(OC2CN(c3c4c(nc5ccnn35)CCNCC4)C2)c1`, for which the Ratio with Caco-2 came out at 2.1. Also, the Emax in data set [1] worked out at 88%; in data set [2] it was 43%; in [6], 9%. In addition, the pEC50 was 7.40 in data set [3], 6.67 in [4] and 7.19 in data set [5]. In [14], the Papp A→B was determined as 10.1 ×10⁻⁶ cm/s. This molecule also returned an inhibition at 10 µM at hERG (KCNH2) of 97%.

Take `c1cncc(OC2CN(c3c4c(nc5ccnn35)CCNCC4)C2)c1`: the values for the Emax in data set [1], in data set [2] and in data set [6] were 99%, 73% and 94%, respectively. Further, the pEC50 in data set [3] was 7.20; in [4], 5.83; in [5], 6.68.

As for `O=C1Cc2cc(OC3CN(c4c5c(nc6ccnn46)CCNCC5)C3)ccc2N1`, the results for the Emax in data set [1], in data set [2] and in data set [6] were 99%, 82% and 86%, respectively. For the same molecule, the pEC50 in [3] is 6.12; in [4], 7.14; in data set [5], 8.08. Besides, the inhibition at 10 µM on hERG (KCNH2) was determined as 11%.

Regarding `COc1ccccc1OC1CN(c2c3c(nc4ccnn24)CCNCC3)C1`, the figures for the Emax in data set [1], in data set [2] and in [6] were 84%, 89% and 48%, respectively. Also, the values for the negative-log EC50 (pEC50) in data set [3], in data set [4] and in data set [5] were 5.57, 6.42 and 7.08, respectively. In addition, on hERG (KCNH2), the inhibition at 10 µM stood at 88%.

`c1cc2nc3c(c(N4CCC4)n2n1)CCNCC3`: the maximal response (Emax) in data set [1] is 103%; in data set [2], 97%; in data set [6] it was 51%. Also, the figures for the negative-log EC50 (pEC50) in data set [3], in [4] and in data set [5] were 5.63, 7.03 and 8.27, respectively. Besides, the Ratio EC50 is > 100 in data set [16] and < 20 in the data set filed under Homo sapiens.

For `Fc1ccccc1OC1CN(c2c3c(nc4ccnn24)CCNCC3)C1`, the maximal effect (Emax) in data set [1] was 85%; in [2], 69%; in data set [6], 15%. Further, the pEC50 in [3] is 6.19; in data set [4], 7.03; in [5], 8.30.

Take `c1cc2nc3c(c(N4CCCCC4)n2n1)CCNCC3`: the figures for the Emax in data set [1], in data set [2] and in data set [6] were 139%, 28% and 10%, respectively. Also, the pEC50 in data set [3] was 6.23; in data set [4], 5.55; in data set [5], 5.34.

For the molecule `CCN(C)c1c2c(nc3ccnn13)CCNCC2`, the Emax in [1] is 105%; in data set [2], 69%. In addition, the negative logarithm of the EC50 (pEC50) in [4] was 6.07; in data set [5] it was 6.44.

Take `c1cc2nc3c(c(N4CCCC4)n2n1)CCNCC3`: the Emax turned out to be 110% in data set [1], 36% in data set [2] and 15% in [6]. For the same molecule, the values for the pEC50 in [3], in data set [4] and in [5] were 5.64, 5.65 and 6.12, respectively.

Turning to `c1ccc(OC2CN(c3c4c(nc5ccnn35)CCNCC4)C2)cc1`, the Ratio in the data set on Caco-2 is 2.3. In addition, the Emax in data set [1] worked out at 95%; in data set [2], 58%; in data set [6], 22%. The pEC50 in data set [3] was 5.11; in [4] it was 6.66; in [5] it was 7.74. In data set [14], the Papp A→B was determined as 13.3 ×10⁻⁶ cm/s. Also, the inhibition at 10 µM against hERG (KCNH2) was determined as 81%.

Take `CC(=O)N(C)c1ccc(OC2CN(c3c4c(nc5ccnn35)CCNCC4)C2)cc1`: in the data set with Caco-2, the Ratio stood at 6.9. Also, the values for the maximum response (Emax) in data set [1], in [2] and in data set [6] were 96%, 60% and 35%, respectively. Further, the values for the pEC50 in data set [3], in [4] and in data set [5] were 5.69, 5.93 and 6.73, respectively. Moreover, the Papp A→B in data set [14] was 0.62 ×10⁻⁶ cm/s. This molecule also came in with an inhibition at 10 µM at hERG (KCNH2) of 5%.

For the molecule `c1ccc(OC2CN(c3c4c(nc5ccnn35)CCNCC4)C2)nc1`, the Ratio in the data set on Caco-2 stood at 2.2. Also, the maximum response (Emax) came out at 93% in data set [1], 71% in data set [2] and 29% in data set [6]. In addition, the values for the pEC50 in data set [3], in data set [4] and in data set [5] were 5.29, 6.15 and 7.43, respectively. In data set [14], the Papp A→B came to 10.3 ×10⁻⁶ cm/s. The molecule further came in with an inhibition at 10 µM against hERG (KCNH2) of 78%.

For `Fc1cccc(OC2CN(c3c4c(nc5ccnn35)CCNCC4)C2)c1`, the Ratio in the data set on Caco-2 worked out at 1.6. Besides, the Emax amounted to 78% in data set [1], 23% in data set [2] and 5% in [6]. In addition, the pEC50 is 7.49 in data set [3], 7.89 in data set [4] and 7.60 in [5]. Moreover, the Papp A→B in [14] was found to be 7.9 ×10⁻⁶ cm/s. At hERG (KCNH2), this molecule gave an inhibition at 10 µM of 93%.

Regarding `c1cc(OC2CN(c3c4c(nc5ccnn35)CCNCC4)C2)ccn1`, the Emax in data set [1] was 102%; in data set [2], 79%; in data set [6], 27%. For the same molecule, the results for the negative logarithm of the EC50 (pEC50) in data set [3], in data set [4] and in [5] were 5.91, 5.94 and 6.24, respectively.
